Patent publication US20230131966A1, “FUNGICIDAL AMIDES” (FMC Corporation, priority 2020, published 2023)

Legend:
Type in all cases: in vivo
[1] = system: Phytophthora infestans; assay: whole plant or invertebrate; conditions: tomato seedlings; for Test F disease control rating: 250 ppm; for Test F disease control rating / pest or weed control at 250 ppm: 100 = 100% disease control, 0 = no control; for pest or weed control at 250 ppm: Phytophthora infestans, in Solanum lycopersicum, read-out: Test F disease control rating, 250 ppm
[2] = system: Puccinia recondita f. sp. tritici; assay: Test B: wheat leaf rust control on wheat seedlings; conditions: for Test B disease control rating / pest or weed control at 250 ppm: 250 ppm, wheat seedlings, 100 = 100% disease control, 0 = no control; for pest or weed control at 250 ppm: Puccinia recondita, read-out: Test B disease control rating
[3] = system: Zymoseptoria tritici; assay: Test C: wheat leaf blotch control on wheat seedlings; conditions: for Test C disease control rating / pest or weed control at 250 ppm: 250 ppm, wheat seedlings, 100 = 100% disease control, 0 = no control; for pest or weed control at 250 ppm: Zymoseptoria tritici, read-out: Test C disease control rating
[4] = system: Phakopsora pachyrhizi; assay: Test A: Asian soybean rust control on soybean seedlings; conditions: for Test A disease control rating / pest or weed control at 250 ppm: 250 ppm, soybean seedlings, 100 = 100% disease control, 0 = no control; for pest or weed control at 250 ppm: Phakopsora pachyrhizi, read-out: Test A disease control rating
[5] = system: Plasmopara viticola; assay: Test D: grape downy mildew control on grape seedlings; conditions: for Test D disease control rating / pest or weed control at 250 ppm: 250 ppm, 100 = 100% disease control, 0 = no control; for pest or weed control at 250 ppm: Plasmopara viticola, read-out: Test D disease control rating
[6] = system: Erysiphe graminis f. sp. tritici; assay: Test G: wheat powdery mildew control on wheat seedlings; conditions: for Test G disease control rating / pest or weed control at 250 ppm: 250 ppm, 100 = 100% disease control, 0 = no control; for pest or weed control at 250 ppm: Blumeria graminis, read-out: Test G disease control rating
[7] = system: Botrytis cinerea; assay: Test E: tomato Botrytis control on tomato seedlings; conditions: for Test E disease control rating / pest or weed control at 250 ppm: 250 ppm, 100 = 100% disease control, 0 = no control; for pest or weed control at 250 ppm: Botrytis cinerea, read-out: Test E disease control rating
[8] = rate 250 ppm, relative to the controls

SMILES: CCC(OC(=O)[C@H](C)NC(=O)c1nccc(OC)c1OCOC(=O)C(C)C)c1ccc(C2CCCCC2)cc1 (single isomer, unassigned) [Compound 133]
- Test F disease control rating [1]: 0%
- Test B disease control rating [2]: 99%
- Test C disease control rating [3]: 93%
- Test A disease control rating [4]: 100%
- Test D disease control rating [5]: 24%
- Test G disease control rating [6]: 0%
- Test E disease control rating [7]: 0%

SMILES: COc1ccnc(C(=O)NC(C)C(=O)OC(C)c2ccccc2-n2ccc(C(F)(F)F)n2)c1O (mixture of isomers) [Compound 26]
- Test F disease control rating [1]: 0%
- Test B disease control rating [2]: 0%
- Test C disease control rating [3]: 47%
- Test A disease control rating [4]: 73%
- Test D disease control rating [5]: 43%
- Test G disease control rating [6]: 0%
- Test E disease control rating [7]: 0%

SMILES: CCOC(=O)c1ccn(-c2ccc(C(C)OC(=O)C(C)NC(=O)c3nccc(OC)c3OC(C)=O)cc2)n1 (mixture of isomers) [Compound 48]
- Test F disease control rating [1]: 0%
- Test B disease control rating [2]: 55%
- Test C disease control rating [3]: 8%
- Test A disease control rating [4]: 55%
- Test D disease control rating [5]: 4%
- Test G disease control rating [6]: 0%
- Test E disease control rating [7]: 0%

SMILES: COc1ccnc(C(=O)NC(C)C(=O)OC(C)c2ccc(C#C[Si](C)(C)C)cc2)c1OC(C)=O (mixture of isomers) [Compound 80]
- Test F disease control rating [1]: 0%
- Test B disease control rating [2]: 100%
- Test C disease control rating [3]: 98%
- Test A disease control rating [4]: 100%
- Test D disease control rating [5]: 28%
- Test G disease control rating [6]: 0%
- Test E disease control rating [7]: 0%

SMILES: COc1ccnc2c(=O)n([C@@H](C)C(=O)OC(C)c3ccc(C4CCCCC4)cc3)c(=O)oc12 (single isomer, unassigned) [Compound 195]
- Test F disease control rating (100 = 100% disease control, 0 = no disease control) [1, 8]: 0%
- Test B disease control rating (100 = 100% disease control, 0 = no disease control) [2, 8]: 99%
- Test C disease control rating (100 = 100% disease control, 0 = no disease control) [3, 8]: 83%
- Test A disease control rating (100 = 100% disease control, 0 = no disease control) [4, 8]: 100%
- Test D disease control rating (100 = 100% disease control, 0 = no disease control) [5, 8]: 17%
- Test G disease control rating (100 = 100% disease control, 0 = no disease control) [6, 8]: 0%
- Test E disease control rating (100 = 100% disease control, 0 = no disease control) [7, 8]: 0%

SMILES: COc1ccnc(C(=O)NC(C)C(=O)OC(C)c2ccc(F)cc2Oc2ccccc2)c1O (mixture of isomers) [Compound 81]
- Test F disease control rating [1]: 0%
- Test B disease control rating [2]: 68%
- Test C disease control rating [3]: 78%
- Test A disease control rating [4]: 93%
- Test D disease control rating [5]: 53%
- Test G disease control rating [6]: 0%
- Test E disease control rating [7]: 0%

SMILES: COc1cccc(C(=O)NC(C)C(=O)OC(C)c2ccccc2Cc2ccccc2)c1O (stereo not drawn) [Compound 6]
- Test F disease control rating [1]: 0%
- pest or weed control at 250 ppm [2]: 0%
- pest or weed control at 250 ppm [3]: 0%
- pest or weed control at 250 ppm [4]: 0%
- Test D disease control rating [5]: 28%
- pest or weed control at 250 ppm [6]: 0%
- pest or weed control at 250 ppm [7]: 0%

SMILES: COc1ccnc(C(=O)NC(C)C(=O)OC(C)c2ccc(C3CCCCC3)cc2)c1OC(=O)C(C)C (mixture of isomers) [Compound 154]
- Test F disease control rating [1]: 0%
- Test B disease control rating [2]: 98%
- Test C disease control rating [3]: 85%
- Test A disease control rating [4]: 100%
- Test D disease control rating [5]: 48%
- Test G disease control rating [6]: 0%
- Test E disease control rating [7]: 0%

SMILES: COc1ccnc(C(=O)N[C@@H](C)C(=O)OC(C)c2ccc(C3CCCCC3)cc2)c1OCOC(=O)C(C)C (single isomer, unassigned) [Compound 145]
- Test F disease control rating [1]: 0%
- Test B disease control rating [2]: 99%
- Test C disease control rating [3]: 94%
- Test A disease control rating [4]: 100%
- Test D disease control rating [5]: 22%
- Test G disease control rating [6]: 0%
- Test E disease control rating [7]: 0%

SMILES: COc1ccnc(C(=O)NC(C)C(=O)OC(C)c2ccc(C#C[Si](C)(C)C)cc2)c1O (mixture of isomers) [Compound 69]
- Test F disease control rating [1]: 9%
- Test B disease control rating [2]: 100%
- Test C disease control rating [3]: 94%
- Test A disease control rating [4]: 100%
- Test D disease control rating [5]: 50%
- Test G disease control rating [6]: 0%
- Test E disease control rating [7]: 0%

SMILES: COc1ccnc(C(=O)NC(C)C(=O)OC(C)c2cccc3ccccc23)c1O (stereo not drawn) [Compound 114]
- Test F disease control rating [1]: 0%
- Test B disease control rating [2]: 100%
- Test C disease control rating [3]: 77%
- Test A disease control rating [4]: 100%
- Test D disease control rating [5]: 63%
- Test G disease control rating [6]: 0%
- Test E disease control rating [7]: 0%

SMILES: CC(NC(=O)c1cccc(N)c1O)C(=O)OC(C)c1ccccc1Cc1ccccc1 (racemic) [Compound 9]
- pest or weed control at 250 ppm [1]: 76%
- pest or weed control at 250 ppm [2]: 91%
- pest or weed control at 250 ppm [3]: 53%
- pest or weed control at 250 ppm [4]: 95%
- pest or weed control at 250 ppm [5]: 97%
- pest or weed control at 250 ppm [6]: 0%
- pest or weed control at 250 ppm [7]: 0%

SMILES: COc1ccnc(C(=O)NC(C)C(=O)OC(C)C2CCCCC2)c1O (mixture of isomers) [Compound 126]
- Test F disease control rating [1]: 0%
- Test B disease control rating [2]: 0%
- Test C disease control rating [3]: 10%
- Test A disease control rating [4]: 0%
- Test D disease control rating [5]: 3%
- Test G disease control rating [6]: 0%
- Test E disease control rating [7]: 0%

SMILES: CCC(OC(=O)[C@H](C)NC(=O)c1nccc(OC)c1O)C1CCCCC1 (mixture of isomers) [Compound 84, N-[(3-hydroxy-4-methoxy-2-pyridinyl)carbonyl]-L-alanine 1-cyclohexylpropyl ester]
- pest or weed control at 250 ppm [1]: 0%
- pest or weed control at 250 ppm [2]: 100%
- pest or weed control at 250 ppm [3]: 57%
- pest or weed control at 250 ppm [4]: 100%
- pest or weed control at 250 ppm [5]: 21%
- pest or weed control at 250 ppm [6]: 0%
- pest or weed control at 250 ppm [7]: 0%

SMILES: COc1ccnc(C(=O)N[C@@H](C)C(=O)OC(C)c2ccc(F)cc2Cc2ccccc2)c1OC(C)=O (single isomer, unassigned) [Compound 37]
- Test F disease control rating [1]: 0%
- Test B disease control rating [2]: 99%
- Test C disease control rating [3]: 89%
- Test A disease control rating [4]: 100%
- Test D disease control rating [5]: 29%
- Test G disease control rating [6]: 0%
- Test E disease control rating [7]: 0%

SMILES: COc1ccnc(C(=O)NC(C)C(=O)OC(C)c2cccc(C3CC3)c2)c1OC(C)=O (mixture of isomers) [Compound 157]
- Test F disease control rating [1]: 0%
- Test B disease control rating [2]: 100%
- Test C disease control rating [3]: 86%
- Test A disease control rating [4]: 100%
- Test D disease control rating [5]: 63%
- Test G disease control rating [6]: 0%
- Test E disease control rating [7]: 0%

SMILES: COc1ccnc(C(=O)NC(C)C(=O)OC(C)c2ccccc2Oc2ccc(F)cc2)c1OC(C)=O (mixture of isomers) [Compound 61]
- Test F disease control rating [1]: 0%
- Test B disease control rating [2]: 55%
- Test C disease control rating [3]: 0%
- Test A disease control rating [4]: 0%
- Test D disease control rating [5]: 15%
- Test G disease control rating [6]: 0%
- Test E disease control rating [7]: 0%

SMILES: COc1ccnc(C(=O)N[C@@H](C)C(=O)OC(C)c2cccc(OC3CCC(C)(C)CC3)c2)c1O (stereo partly drawn) [Compound 138]
- Test F disease control rating [1]: 0%
- Test B disease control rating [2]: 74%
- Test C disease control rating [3]: 63%
- Test A disease control rating [4]: 95%
- Test D disease control rating [5]: 18%
- Test G disease control rating [6]: 0%
- Test E disease control rating [7]: 0%
